Experimental data as given in patent publication US20170233345A1, “SUBSTITUTED QUINOLINE-4-CARBOXAMIDES AND USE THEREOF” (BAYER PHARMA AKTIENGESELLSCHAFT, priority 2014, published 2017).
Where a name gives a salt, the structure may show the parent alone.

Tested on: recombinant guanylate cyclase reporter cell line
Experiment: Effect on a recombinant guanylate cyclase reporter cell line
Type: cell-based
Conditions: in some cases mean values from individual determinations, read-out: MEC (minimum effective concentration)
Procedure: B-2. Effect on a Recombinant Guanylate Cyclase Reporter Cell Line
The cellular activity of the compounds according to the invention is determined using a recombinant guanylate cyclase reporter cell line, as described in F. Wunder et al., Anal. Biochem. 339, 104-112 (2005).
Representative MEC values (MEC=minimum effective concentration) for the compounds of the invention are shown in the table below (in some cases as mean values from individual determinations): […]

Compound	minimal effective concentration [µM]
CN1CCC(NC(=O)c2ccnc3c(OCc4c(F)cccc4F)cccc23)c2ccccc21 (stereo not drawn) [Example 27]	1
CC(COCC(F)(F)F)NC(=O)c1ccnc2c(OCc3c(F)cccc3F)cccc12 (stereo not drawn) [Example 21]	3
O=C(NCc1ccccc1-n1ccnc1)c1ccnc2c(OCc3c(F)cccc3F)cccc12 [Example 28]	3
CC(N)(CNC(=O)c1ccnc2c(OCc3c(F)cccc3F)cccc12)CC(F)F (single isomer, unassigned; enantiomer b) [Example 7, ent-N-(2-Amino-4,4-difluoro-2-methylbutyl)-8-[(2,6-difluorobenzyl)oxy]quinoline-4-carboxamide (Enantiomer B)]	2
CC(N)(CCC(F)(F)F)CNC(=O)c1cnc2c(OCc3c(F)cccc3F)cccc2c1 (single isomer, unassigned; enantiomer b) [Example 40, ent-N-(2-Amino-5,5,5-trifluoro-2-methylpentyl)-8-[(2,6-difluorobenzyl)oxy]quinoline-3-carboxamide (Enantiomer B)]	10
O=C(NCCN1CCOCC1)c1ccnc2c(OCc3c(F)cccc3F)cccc12 [Example 16]	10
O=C(NC1CC1c1ccccc1)c1ccnc2c(OCc3c(F)cccc3F)cccc12 (stereo not drawn) [Example 13]	10
Cc1cc(OCc2c(F)cccc2F)c2nccc(C(=O)NCC(C)(N)CCC(F)(F)F)c2c1 (single isomer, unassigned; enantiomer b) [Example 45, ent-N-(2-Amino-5,5,5-trifluoro-2-methylpentyl)-8-[(2,6-difluorobenzyl)oxy]-6-methylquinoline-4-carboxamide (Enantiomer B)]	0.65
N#CC(NC(=O)c1ccnc2c(OCc3c(F)cccc3F)cccc12)c1ccc(Cl)cc1 (stereo not drawn) [Example 31]	3
Cc1cc(OCc2c(F)cccc2F)c2nccc(C(=O)NC(C)(CO)c3nnn(C(F)F)n3)c2c1 (racemic) [Example 49, rac-8-[(2,6-Difluorobenzyl)oxy]-N-{2-[2-(difluoromethyl)-2H-tetrazol-5-yl]-1-hydroxypropan-2-yl}-6-methylquinoline-4-carboxamide]	2
COc1ccc(CC(C)(N)CNC(=O)c2ccnc3c(OCc4c(F)cccc4F)cccc23)cc1 (single isomer, unassigned; enantiomer a) [Example 36, ent-N-[2-Amino-3-(4-methoxyphenyl)-2-methylpropyl]-8-[(2,6-difluorobenzyl)oxy]quinoline-4-carboxamide (Enantiomer A)]	3
O=C(NCC1(O)CC1)c1ccnc2c(OCc3c(F)cccc3F)cccc12 [Example 22]	3
O=C(NC1(c2ccc(F)cc2)CC1)c1cnc2c(OCc3c(F)cccc3F)cccc2c1 [Example 39, 8-[(2,6-Difluorobenzyl)oxy]-N-[1-(4-fluorophenyl)cyclopropyl]quinoline-3-carboxamide]	1
O=C(NCCN(CC(F)F)C1CC1)c1ccnc2c(OCc3c(F)cccc3F)cccc12 [Example 23]	3
O=C(NC1CCCc2ccccc21)c1ccnc2c(OCc3c(F)cccc3F)cccc12 (stereo not drawn) [Example 29]	0.3
CCCC[C@H](C)NC(=O)c1ccnc2c(OCc3c(F)cccc3F)cccc12 [Example 3, 8-[(2,6-Difluorobenzyl)oxy]-N-[(2S)-hexan-2-yl]quinoline-4-carboxamide]	1
Cc1nn(Cc2ccc(F)cc2)c(C)c1NC(=O)c1ccnc2c(OCc3c(F)cccc3F)cccc12 [Example 17]	10
O=C(NC1c2ccccc2CC1O)c1ccnc2c(OCc3c(F)cccc3F)cccc12 (stereo not drawn) [Example 9]	3
O=C(Nc1cnn(CCO)c1)c1ccnc2c(OCc3c(F)cccc3F)cccc12 [Example 30]	10
O=C(N[C@@H](CO)C(=O)Nc1ccc2ccccc2c1)c1ccnc2c(OCc3c(F)cccc3F)cccc12 [Example 10]	10
Cc1[nH]nc(C(F)(F)F)c1NC(=O)c1ccnc2c(OCc3c(F)cccc3F)cccc12 [Example 19]	3
CCC(C)(N)CNC(=O)c1cc(C)nc2c(OCc3c(F)cccc3F)cccc12 (single isomer, unassigned; enantiomer b) [Example 47, ent-N-(2-Amino-2-methylbutyl)-8-[(2,6-difluorobenzyl)oxy]-2-methylquinoline-4-carboxamide (Enantiomer B)]	3
CC[C@](C)(N)CNC(=O)c1ccnc2c(OCc3c(F)cccc3F)cccc12 [Example 5, N-[(2S)-2-Amino-2-methylbutyl]-8-[(2,6-difluorobenzyl)oxy]quinoline-4-carboxamide]	3

Compound	minimal effective concentration [µM]
CCCC[C@H](CO)NC(=O)c1cc(C)nc2c(OCc3c(F)cccc3F)cccc12 [Example 46, ent-8-[(2,6-Difluorobenzyl)oxy]-N-[(2R)-1-hydroxyhexan-2-yl]-2-methylquinoline-4-carboxamide (Enantiomer)]	2
CCCC[C@H](CO)NC(=O)c1cnc2c(OCc3c(F)cccc3F)cccc2c1 [Example 38, 8-[(2,6-Difluorobenzyl)oxy]-N-[(2R)-1-hydroxyhexan-2-yl]quinoline-3-carboxamide]	3
CC(N)(CCC(F)(F)F)CNC(=O)c1ccnc2c(OCc3c(F)cccc3F)cccc12 (single isomer, unassigned; enantiomer b) [Example 6, ent-N-(2-Amino-5,5,5-trifluoro-2-methylpentyl)-8-[(2,6-difluorobenzyl)oxy[quinoline-4-carboxamide (Enantiomer B)]	0.3
O=C(NC(CO)c1ccc(F)cc1)c1ccnc2c(OCc3c(F)cccc3F)cccc12 (stereo not drawn) [Example 33]	2
CN(C)CCNC(=O)c1ccnc2c(OCc3c(F)cccc3F)cccc12 [Example 14]	10
COc1ccc(CC(C)(N)CNC(=O)c2ccnc3c(OCc4c(F)cccc4F)cccc23)cc1 (single isomer, unassigned; enantiomer b) [Example 37, ent-N-[2-Amino-3-(4-methoxyphenyl)-2-methylpropyl]-8-[(2,6-difluorobenzyl)oxy]quinoline-4-carboxamide (Enantiomer B)]	10
CC1(C)CC(NC(=O)c2ccnc3c(OCc4c(F)cccc4F)cccc23)CC(C)(C)N1 [Example 12]	10
O=C(Nc1ccnc2ccc(F)cc12)c1ccnc2c(OCc3c(F)cccc3F)cccc12 [Example 2, 8-[(2,6-Difluorobenzyl)oxy]-N-(6-fluoroquinolin-4-yl)quinoline-4-carboxamide]	10
COc1ccc(CC(C)(N)CNC(=O)c2ccnc3c(OCc4c(F)cccc4F)cccc23)cc1 (racemic) [Example 35, rac-N-[2-amino-3-(4-methoxyphenyl)-2-methylpropyl]-8-[(2,6-difluorobenzyl)oxy]quinoline-4-carboxamide trifluoroacetate]	3
O=C(NC1(c2ccc(F)c(F)c2)CC1)c1ccnc2c(OCc3c(F)cccc3F)cccc12 [Example 1, 8-[(2,6-Difluorobenzyl)oxy]-N-[1-(3,4-difluorophenyl)cyclopropyl]quinoline-4-carboxamide]	3
O=C(N[C@H]1CCOC1=O)c1ccnc2c(OCc3c(F)cccc3F)cccc12 [Example 24]	10
CCC(CO)(CO)NC(=O)c1ccnc2c(OCc3c(F)cccc3F)cccc12 [Example 25]	10
O=C(NCCC1(O)CCCC1)c1ccnc2c(OCc3c(F)cccc3F)cccc12 [Example 8, 8-[(2,6-Difluorobenzyl)oxy]-N-[2-(1-hydroxycyclopentyl)ethyl]quinoline-4-carboxamide]	3
CCC(N)(CC)CNC(=O)c1ccnc2c(OCc3c(F)cccc3F)cccc12 [Example 11]	3
O=C(NC1CCOc2ncccc21)c1ccnc2c(OCc3c(F)cccc3F)cccc12 (stereo not drawn) [Example 34]	1
CC(NC(=O)c1ccnc2c(OCc3c(F)cccc3F)cccc12)c1nc(C(F)(F)F)no1 (stereo not drawn) [Example 18]	3
CC[C@](C)(N)CNC(=O)c1cnc2c(OCc3c(F)cccc3F)cccc2c1 [Example 41, N-[(2S)-2-Amino-2-methylbutyl]-8-[(2,6-difluorobenzyl)oxy]quinoline-3-carboxamide]	10
CCCC[C@H](CO)NC(=O)c1ccnc2c(OCc3c(F)cccc3F)cccc12 [Example 4, 8-[(2,6-Difluorobenzyl)oxy]-N-[(2R)-1-hydroxyhexan-2-yl]quinoline-4-carboxamide]	3
N#C[C@H]1CC[C@H](CNC(=O)c2ccnc3c(OCc4c(F)cccc4F)cccc23)CC1 [Example 44]	10
Cc1cc(OCc2c(F)cccc2F)c2nccc(C(=O)N[C@@](C)(CO)c3nnc(C)s3)c2c1 [Example 48, ent-8-[(2,6-Difluorobenzyl)oxy]-N-[(2S)-1-hydroxy-2-(5-methyl-1,3,4-thiadiazol-2-yl)propan-2-yl]-6-methylquinoline-4-carboxamide]	3
O=C(NCc1ccccc1-c1cccnc1)c1ccnc2c(OCc3c(F)cccc3F)cccc12 [Example 15]	10
CC(N)(CNC(=O)c1ccnc2c(OCc3c(F)cccc3F)cccc12)C1CC1 (racemic) [Example 42, rac-N-(2-Amino-2-cyclopropylpropyl)-8-[(2,6-difluorobenzyl)oxy]quinoline-4-carboxamide]	10
